A word on the Ki: it is a measure of affinity in units of concentration, obtained from inhibition or displacement.

Each structure is given as a SMILES string.

In assay [1] the target is T1, TvDAAO (recombinant His-tagged D-amino acid oxidase from Trigonopsis variabilis) (Trigonopsis variabilis, UniProt Q99042). In words: intrinsic tryptophan fluorescence (excitation […] nm) of reconstituted holoenzyme with NaCl. As to conditions: 25 °C; FAD dissociation by NaCl followed indirectly; holoenzyme reconstituted with 5-fold FAD; noncovalent. More on the design: gene DAO1; N-terminal hexahistidine tag, expressed in E. coli mainly as apoenzyme, metal-chelate purified, holoenzyme reconstituted with FAD. It is filed as binding.
T1 sequence (Q99042 whole entry): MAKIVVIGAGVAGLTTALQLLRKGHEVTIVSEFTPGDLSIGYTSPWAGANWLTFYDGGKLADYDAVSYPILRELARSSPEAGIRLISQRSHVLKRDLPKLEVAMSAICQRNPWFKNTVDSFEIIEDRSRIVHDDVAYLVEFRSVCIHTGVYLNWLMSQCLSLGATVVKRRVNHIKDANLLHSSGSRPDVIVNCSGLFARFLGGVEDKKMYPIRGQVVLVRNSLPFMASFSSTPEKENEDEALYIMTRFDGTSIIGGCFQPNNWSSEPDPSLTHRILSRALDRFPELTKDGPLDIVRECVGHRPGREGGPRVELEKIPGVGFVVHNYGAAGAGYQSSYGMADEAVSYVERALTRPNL

Assay [2] has as its target T1, TvDAAO (recombinant His-tagged D-amino acid oxidase from Trigonopsis variabilis). Briefly: DNPH end-point assay of pyruvate at […] nm. It is filed as biochemical. Also noted: gene DAO1; N-terminal hexahistidine tag, expressed in E. coli mainly as apoenzyme, metal-chelate purified, holoenzyme reconstituted with FAD. To be noted: FAD added, potassium phosphate pH 8.0, 30 °C.

Assay [3] shares this target. Briefly: biochemical. More on the design: gene DAO1.

With `Cc1cc2nc3c(=O)[nH]c(=O)nc-3n(C[C@H](O)[C@H](O)[C@H](O)COP(=O)(O)OP(=O)(O)OC[C@H]3O[C@@H](n4cnc5c(N)ncnc54)[C@H](O)[C@@H]3O)c2cc1C` [FAD], the “intrinsic tryptophan fluorescence (excitation 295 nm) of reconstituted holoenzym” value in assay [1] is listed as “Such an effect may be related to the loss of cofactor FAD”.
As to `C[C@@H](N)C(=O)O` [D-alanine], the “DNPH end-point assay of pyruvate at 450 nm” value in assay [2] is “measured the release of α-ketoacid from D-alanine during the reaction”.
For the molecule `Cl` [NaCl], in assay [3], the Ki stood at 85 mM.

The values above are taken from PMC3057018, “Inhibition of Recombinant D-Amino Acid Oxidase from Trigonopsis variabilis by Salts” (Enzyme Research, 2011).
